# Results taken from ChEMBL document CHEMBL4819124, “Folate-targeted verrucarin A reduces the number of activated macrophages in a mouse model of acute peritonitis” (Bioorg Med Chem Lett, 2021).
# Activity calls are given as the source filed them. The calls are words filed in the database; no cut-off is given here. *1 amine or outer side, *2 acyl side, *3 side chain or, on linkers, in order; H or OH if unused. Where a SMILES comes first, the peptide text is derived from it. The star is where a group is joined. Pteroyl = Nc1nc2ncc(CNc3ccc(C(=O)*)cc3)nc2c(=O)[nH]1; γGlu = O=C(O)[C@H](CCC(=O)[*:2])N[*:1]
# Experiments:
# [1] = system: Mus musculus; test: Antiinflammatory activity against mouse model of thioglycolate induced peritonitis assessed as decrease in FR+ macrophages in peritoneal fluid at 1000 nmol/kg, ip dosed twice everyday measured after 3 days by Alexafluor-488 goat anti-rabbitIgG staining based flow cytometric analysis relative to control; type: functional, organism-based; details: time 3.0 day
# [2] = system: RAW264.7; test: Cytotoxicity against mouse RAW264.7 cells assessed as reduction in cell viability treated for 1 hr followed by 72 hrs incubation in drug free media by [3H]-thymidine incorporation assay; type: functional, cell-based
# [3] = system: Mus musculus; test: Antiinflammatory activity against mouse model of thioglycolate induced peritonitis assessed as effect on lymphocytes in peritoneal fluid at 1000 nmol/kg, ip dosed twice everyday measured after 3 days by staining based flow cytometric analysis relative to control; type: functional, organism-based; details: time 3.0 day
# [4] = system: KB; test: Cytotoxicity against human KB cells assessed as reduction in cell viability treated for 1 hr followed by 72 hrs incubation in drug free media by [3H]-thymidine incorporation assay; type: cell-based
# [5] = system: Mus musculus; test: Antiinflammatory activity against mouse model of thioglycolate induced peritonitis assessed as effect on granulocytes in peritoneal fluid at 1000 nmol/kg, ip dosed twice everyday measured after 3 days by staining based flow cytometric analysis relative to control; type: functional, organism-based; details: time 3.0 day
# [6] = system: Mus musculus; test: Antiinflammatory activity against mouse model of thioglycolate induced peritonitis assessed as decrease in total macrophage population in peritoneal fluid at 1000 nmol/kg, ip dosed twice everyday measured after 3 days by staining based flow cytometric analysis relative to control; type: functional, organism-based; details: time 3.0 day
# [7] = biological target: Folate receptor beta (Homo sapiens, UniProt P14207); test: Displacement of [3H]-folic acid from FRbeta (unknown origin) expressed in mouse RAW264.7 cells after 1 hr; type: cell-based
# Sequence of Folate receptor beta (P14207 whole entry): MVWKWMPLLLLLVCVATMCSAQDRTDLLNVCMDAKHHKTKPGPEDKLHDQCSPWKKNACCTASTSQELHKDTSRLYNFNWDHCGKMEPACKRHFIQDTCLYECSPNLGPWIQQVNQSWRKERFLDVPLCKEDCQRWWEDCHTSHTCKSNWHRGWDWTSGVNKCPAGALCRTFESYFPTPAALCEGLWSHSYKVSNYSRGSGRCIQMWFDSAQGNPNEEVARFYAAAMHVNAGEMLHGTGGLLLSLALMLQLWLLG
# [8] = biological target: Folate receptor alpha (Homo sapiens, UniProt P15328); test: Displacement of [3H]-folic acid from FRalpha (unknown origin) expressed in human KB cells after 1 hr; type: cell-based
# Sequence of Folate receptor alpha (P15328 whole entry): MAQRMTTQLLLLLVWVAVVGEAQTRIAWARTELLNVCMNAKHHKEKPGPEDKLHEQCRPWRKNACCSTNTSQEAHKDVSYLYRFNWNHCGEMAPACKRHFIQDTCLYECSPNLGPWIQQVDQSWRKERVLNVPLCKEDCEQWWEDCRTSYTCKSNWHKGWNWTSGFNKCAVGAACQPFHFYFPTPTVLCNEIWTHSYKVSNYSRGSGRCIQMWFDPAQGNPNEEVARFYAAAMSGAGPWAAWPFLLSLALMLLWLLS
SMILES,Activity [1],IC50 [2],Activity [3],IC50 [4],Activity [5],Activity [6],IC50 [7],IC50 [8]
CC1=C[C@H]2O[C@@H]3C[C@H]4OC(=O)/C=C\C=C\C(=O)OCC[C@@H](C)[C@H](OC(=O)OCCSSC[C@H](NC(=O)[C@H](CC(=O)O)NC(=O)[C@H](CC(=O)O)NC(=O)[C@H](CCCNC(=N)N)NC(=O)[C@H](CC(=O)O)NC(=O)CC[C@H](NC(=O)c5ccc(NCc6cnc7nc(N)[nH]c(=O)c7n6)cc5)C(=O)O)C(=O)O)C(=O)OC[C@@]2(CC1)[C@]4(C)[C@]31CO1,Active,8.5 nM,inactive,525 nM,inactive,Active,,
N=C(N)NCCC[C@H](NC(=O)[C@H](CC(=O)O)NC(=O)CC[C@H](NC(=O)c1ccc(NCc2cnc3nc(N)[nH]c(=O)c3n2)cc1)C(=O)O)C(=O)N[C@@H](CC(=O)O)C(=O)N[C@@H](CC(=O)O)C(=O)N[C@@H](CS)C(=O)O ({Pteroyl-γGlu}-DRDDC-OH),,,,,,,0.56 nM,1.4 nM
